Results reported in publication PMC7596511 (Scientific Reports, 2020).
“Also recorded” adds a separate entry of the source.

What was measured:
AgamOBP20 = biological target: T1, AgamOBP20 (Anopheles gambiae, UniProt Q7Q9J3); experiment: Fluorescence competitive binding test (FCBT), 1-NPN probe; parameters: species or system Anopheles gambiae s.s.
T1 sequence (Q7Q9J3 24-142): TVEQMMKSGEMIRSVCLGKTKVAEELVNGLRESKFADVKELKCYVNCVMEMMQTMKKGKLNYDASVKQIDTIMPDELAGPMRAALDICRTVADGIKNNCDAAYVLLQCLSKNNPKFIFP
Protocol: (§1) For recombinant OBPs, we first need to obtain the OBPs related genes. DNA of A. gambiae s.s. female adults was extracted following the procedure used in a previous study. The predicted AgamOBPs and AgamORs were detected using standard PCR with specific respective primers which were designed using Primer Premier 5 (Premier Biosoft, California, USA; Table S1). Each PCR mixture contained 1 μl of A. gambiae s.s. […] (200 ng·ml^−1; previously extracted using a DNA extraction kit from Transgen Biotech, Beijing, China), 12.5 μl prime STAR Max Premix (2 ×), 1.5 μl of each primer ([…]), and […] sterilized H2O. The PCR cycling conditions were as follows: an initial denaturation at 94 °C for 40 s, followed by 35 cycles at […] for 40 s (denaturing), 59 °C for 50 s (annealing) and 72 °C for 3 min. The PCR products were verified and sent for sequencing. Recombinant proteins were generated by transforming plasmids containing the verified […] genes into Escherichia coli BL21 (DE3) cells. We then induced recombinant protein expression using 1 mM isopropyl ß-D-1-thiogalactopyranoside at 37 °C for 6 h. The recombinant proteins were purified using two rounds of […] ion affinity chromatography (GE Healthcare, Milwaukee, WI, USA), following the manufacturer's instructions[5],[53]; the His-tags were removed simultaneously using recombinant enterokinase (Novagen, Madison, WI, USA), following the manufacturer's instructions. The purified proteins were desalted using extensive dialysis. The size and purity of each desalted protein were determined using 15% sodium dodecylsulphate-polyacrylamide gel electrophoresis (SDS-PAGE)[55].
(§2) This assay assumes that the receptors are 100% active, and that each receptor can only bind to one ligand[56].
(§3) Recombinant proteins were dissolved in 50 mM Tris–HCl protein buffer to yield a final concentration of […], respectively. The fluorescence competitive binding were conducted in a 1-cm quartz cell and the fluorescence intensity F95S fluorescence spectrophotometer (Shanghai Lengguang Technology Co., Ltd., Shanghai, China) at 25 °C with the following parameters: excitation of 10 nm; emission slit of 10 nm; sensitivity of 2 s; gain value of 2; excitation wavelength of 337 nm; and an emission wavelength range of 370–500 nm, as a previous study.
(§4) First, the binding constant (Kd) for each recombinant protein to the 1-N-phenyl-naphthylamine (1-NPN) fluorescent probe was detected. In brief, 2 ml of protein solution and 2 μl of 1-NPN solution were added to the quartz cell and thoroughly mixed for 1 min. Peak fluorescence was continuously recorded until it stabilized and began to decrease.
(§5) Next, the ligands were added to the quartz cell along with each receptor, in order to competitively bind to the fluorescent probe. In brief, 2 ml of protein solution and 2 ml of 1-NPN solution were added to the quartz cell, and the fluorescence peaks were scanned and recorded. Then, 2 μl of each ligand was added and allowed to sit for 1 min before the peak fluorescence was scanned and recorded. We then continued to add 2 μl aliquots of the ligand solution until the fluorescence was less than half of the initial value.
(§6) The binding curves were then linearized using a Scatchard plot, which calculates the concentration of the competitor that halves the initial fluorescence intensity (IC50).

AgamOBP4 = biological target: T2, AgamOBP4 (Anopheles gambiae, UniProt Q8T6R7); experiment: as above; parameters: species or system Anopheles gambiae s.s.
T2 sequence (Q8T6R7 26-150): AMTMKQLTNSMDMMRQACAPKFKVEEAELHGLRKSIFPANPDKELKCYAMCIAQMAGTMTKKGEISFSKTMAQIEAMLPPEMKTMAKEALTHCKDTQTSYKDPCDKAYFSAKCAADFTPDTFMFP
Protocol: as §1, §2, §3, §4, §5, §6

AgamOBP5 = biological target: T3, AgamOBP5 (Anopheles gambiae, UniProt Q8T6R6); experiment: as above; parameters: species or system Anopheles gambiae s.s.
T3 sequence (Q8T6R6 32-154): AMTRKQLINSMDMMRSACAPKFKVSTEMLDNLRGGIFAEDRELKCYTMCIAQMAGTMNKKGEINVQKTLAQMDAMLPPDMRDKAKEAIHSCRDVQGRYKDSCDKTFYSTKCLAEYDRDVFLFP
Protocol: as §1, §2, §3, §4, §5, §6

AgamORC7 = biological target: T4, AgamORC7 (Anopheles gambiae, UniProt Q7QCC7); experiment: as above; parameters: species or system Anopheles gambiae s.s.
T4 construct: His-tag (cleaved yes); made in house; host or cells: Escherichia coli BL21 (DE3)
T4 sequence (Q7QCC7 1-478): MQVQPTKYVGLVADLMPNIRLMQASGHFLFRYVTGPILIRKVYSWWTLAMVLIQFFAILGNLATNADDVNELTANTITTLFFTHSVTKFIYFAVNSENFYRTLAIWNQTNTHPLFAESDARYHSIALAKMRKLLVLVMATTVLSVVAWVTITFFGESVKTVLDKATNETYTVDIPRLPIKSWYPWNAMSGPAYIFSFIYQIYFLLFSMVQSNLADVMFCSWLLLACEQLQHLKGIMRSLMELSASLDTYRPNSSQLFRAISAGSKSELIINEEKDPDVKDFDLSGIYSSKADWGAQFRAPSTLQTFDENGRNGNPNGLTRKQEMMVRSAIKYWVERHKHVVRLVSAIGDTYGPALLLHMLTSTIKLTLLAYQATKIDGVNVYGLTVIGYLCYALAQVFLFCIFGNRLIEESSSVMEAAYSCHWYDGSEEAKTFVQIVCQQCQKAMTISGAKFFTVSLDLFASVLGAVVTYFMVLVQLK
Protocol: as §1, §2, §3, §4, §5, §6

[1] = test system: Anopheles gambiae s.s. females; experiment: Dual-choice Y-tube olfactory meter repellency test; type: in vivo
Protocol: A glass Y-tube (1.6 cm i.d., 12-cm base , two 8-cm arms at a 45° angle from one another) olfactory meter described in our previous study was used in this experiment. […] The control cotton ball with triethyl citrate (without citronellal) was inserted into the other jar. Teflon tube was used to connect all parts of Y-tube olfactory meter. Fresh air was produced by an air pump at a rate of 200 ± 10 ml/min, and purified by active carbon and silicone before flowing into the jars. The headspace of citronellal volatile was combined with the purified air and went through one arm of the Y-tube while purified air without citronellal went through the other arm. The base of the Y-tube was connected to an air collection bottle. One hundred female A. gambiae s.s. were individually released in the air collection bottle (2-cm i.d., 8-cm high), where behavioral responses were monitored and recorded over a 300 s period. The collecting jar, Y-tubes, air collection bottle were cleaned with hot water (> 60 °C) after every 10 individuals were tested, and the cotton roll was renewed every 2 h. The olfactory test was repeated five times.

| SMILES | Kd (AgamOBP20) [nM] | Kd (AgamOBP4) [nM] | Kd (AgamOBP5) [nM] | Kd (AgamORC7; Fig. 5 panel d, Scatchard, unit inferred) [nM] | repellent rate for 50% of individuals (RQ50) ([1]; Y-tube, quantity series 0.01-100 nmol on cotton ball, Probit analysis) [nmol] | Lg(RQ50) ([1]; regression of citronellal quantity vs repellent rate, Fig. 1) | binding of citronellal in words (AgamOBP20; competition with 1-NPN) | IC50 (AgamOBP4; competition with 1-NPN, 25 °C) [nM] | Ki (AgamOBP4; competition with 1-NPN, 25 °C) [nM] | binding of citronellal in words (AgamOBP5; competition with 1-NPN) | IC50 (AgamORC7; competition with 1-NPN, 25 °C) [nM] | Ki (AgamORC7; competition with 1-NPN, 25 °C) [nM] |
| --- | --- | --- | --- | --- | --- | --- | --- | --- | --- | --- | --- | --- |
| c1ccc(Nc2cccc3ccccc23)cc1 [1-NPN, 1-N-phenyl-naphthylamine] | 2170 | 1140 | 2440 | 1120 | – | – | – | – | – | – | – | – |
| CC(C)=CCCC(C)CC=O (stereo not drawn) [citronellal] | – | – | – | – | 4.02 | 0.604 | could not reduce fluorescent rate down below 50%; also recorded: cannot bind well | 1230 | 710 | could not reduce fluorescent rate down below 50%; also recorded: cannot bind well | 2230 | 1570 |
